Data reported in patent US8440718B2, “Modulation of inflammation related to columnar epithelia” (The Brigham and Women's Hospital, Inc., priority 1991, dated 2013).
Where “and” joins values, the source holds several entries; their conditions need not be identical. Equal entries are not always repeated.

Assays:
Type in all cases: cell-based
[1] = test system: human PMN migration across inverted T84 epithelial monolayers; experiment: PMN transepithelial migration assay, basolateral-to-apical direction (inverted monolayers), fMLP gradient, myeloperoxidase readout
Procedure: (§1) Cell culture Approximately 350 epithelial monolayers were used for these studies. T84 intestinal epithelial cells (passages 70-95) were grown and maintained as confluent monolayers on collagen coated permeable support. Monolayers were grown on 0.33 cm^2 ring-supported polycarbonate filters (Costar Corp., Cambridge, Mass.) and utilized 6-14 days after plating as described in Example 2. Transepithelial resistance to passive ion flow was measured as described in Parkos C. A., et al. (1991). J. Clin. Invest. 88: 1605-1612); and Parkos C. A., et al. (1992). J. Cell. Biol. 117: 757-764). Inverted monolayers used to study migration of PMN in the basolateral-to-apical direction were constructed as described in Parkos C. A., et al. (1991). J. Clin. Invest. 88:1605-1612).
(§2) Migration assay: The PMN transepithelial migration assay has been detailed in Nash S., et al. (1987). J. Clin. Invest. 80: 1104-1113; Nash S., et al. (1991). J. Clin. Invest 87: 1474-1477); Parkos C. A., et al. (1991). J. Clin. Invest. 88: 1605-1612); and Parkos C. A., et al. (1992). J. Cell. Biol. 117: 757-764. Briefly, human PMN were isolated from normal human volunteers and suspended in modified HBSS (without Ca^2+ and Mg^2+, with 10 mM Hepes, pH 7.4, Sigma) at a concentration of 5×10^7/ml. Prior to addition of PMN, T84 monolayers were extensively rinsed in HBSS to remove residual serum components. Migration assays were performed by the addition of PMN (40 μl) to HBSS ([…]) in the upper chambers after chemoattractant (1 μM fMLP in HBSS) was added to the opposing (lower) chambers. Unless otherwise indicated, PMN were not washed free of LXA4 prior to addition to monolayers, and therefore, a five-fold dilution of lipoxin was present during the migration assay. For apical-to-basolateral migration experiments, PMN (2×10^6) were added at time 0. Migration in the basolateral-to-apical direction, while qualitatively similar, is substantially more efficient than in the apical-to-basolateral direction. (Parkos C. A., et al. (1991). J. Clin. Invest. 88: 1605-1612). Therefore, 5-fold fewer PMN (4×10^5) were added when migration proceeded in the basolateral-to-apical direction in order that baseline migration signals be approximately equivalent in both directions. (Parkos C. A., et al. (1991). J. Clin. Invest. 88: 1605-1612). Migration was allowed to proceed for 120 minutes, unless otherwise noted. All PMN transepithelial migration experiments were performed in a 37° C. room to ensure that epithelial monolayers, solutions, plasticware, etc., were maintained at uniform 37° C. temperature.
(§3) Migration was quantitated by assaying for the PMN azurophilic granule marker myeloperoxidase (MPO) as described previously (Parkos C. A., et al. (1991). J. Clin. Invest 88: 1605-1612). Following each migration assay, non-adherent PMN were extensively washed from the surface of the monolayer and PMN cell equivalents (PMN CE), estimated from a standard curve, were assessed as the number of PMN's associated with the monolayer, the number which had completely traversed the monolayer (ie. across the monolayer into the reservoir bath), as well as the total number of transmigrating PMN (the sum of monolayer and reservoir-associated PMN).
(§4) Data Presentation: Individual experiments were performed using large numbers of uniform groups of monolayers and PMN from individual blood donors on individual days. PMN isolation was restricted to five different blood donors (repetitive donations) over the course of these studies. Myeloperoxidase assay data were compared by two-factor analysis of variance (ANOVA) or by comparison of means using Student's t-Test PMN migration results are represented as PMN CE derived from a daily standard PMN dilution curve. Monolayer-associated PMN are represented as the number of PMN CE per monolayer and reservoir-associated PMN (ie. PMN which had completely traversed the monolayer into the lower chamber) are represented as the number of PMN CE/ml (total volume of 1 ml). […]

[2] = test system: human PMN migration across T84 epithelial monolayers; experiment: PMN chemotactic capacity toward LXA4 placed in lower chamber, apical-to-basolateral; settings: compared to 1 μM fMLP
Procedure: as §2, §3
To investigate whether LXA4 could serve to stimulate PMN migration in this assay system, dilutions of LXA4 in the range of 0.01-10 nM were placed in the lower chamber of migration wells. Untreated PMN's were added to the upper chamber and assessed for chemotactic capacity toward LXA4 in the apical-to-basolateral direction. […]

[3] = test system: human PMN migration across T84 epithelial monolayers; experiment: PMN transepithelial migration assay, apical-to-basolateral direction, fMLP gradient, myeloperoxidase readout
Procedure: as §1, §2, §3, §4

[4] = 10 nM LXA4, 30 min pre-exposure
[5] = PMN pre-exposed 10 nM LXA4 15 min 37°C, 1 μM fMLP, 120 min

CCCCC[C@H](O)/C=C/C=C\C=C\C=C\[C@@H](O)[C@@H](O)CCCC(=O)O (relative stereo) [LXA4, (5S, 6R, 15S)-trihydroxy-7,9,13-trans-11-cis-eicosatetraenoic acid]
inhibition of PMN migration, basolateral-to-apical (total MPO activity) ([1]; 10 nM, 15 min pre-incubation 37°C, 1 μM fMLP, 120 min): 28±4% and 25% | transmigrated (reservoir) PMN, basolateral-to-apical ([1]; PMN pre-exposed 1 nM LXA4 15 min): 6.99±1.33 ×10^4 PMN/ml | monolayer-associated PMN, basolateral-to-apical ([1]; PMN pre-exposed 10 nM LXA4 15 min): 2.00±0.31 | PMN migration toward LXA4, % of fMLP-induced PMN migration ([2]; 0.01 nM LXA4 in lower chamber): 6±2.1% | PMN migration toward LXA4, % of fMLP-induced PMN migration ([2]; 0.1 nM LXA4 in lower chamber): 9±3.6% | PMN migration toward LXA4, % of fMLP-induced PMN migration ([2]; 1.0 nM LXA4 in lower chamber): 6±2.4% | PMN migration toward LXA4, % of fMLP-induced PMN migration ([2]; 10 nM LXA4 in lower chamber): 12±1.4% | PMN in lower reservoirs ([3]; 0.001 nM LXA4, 15 min pre-exposure 37°C): 13.71±4.14 ×10^4 PMN CE/ml | PMN in lower reservoirs ([3]; 0.01 nM LXA4, 15 min pre-exposure 37°C): 14.11±3.01 ×10^4 PMN CE/ml | PMN in lower reservoirs ([3]; 0.1 nM LXA4, 15 min pre-exposure 37°C): 15.43±4.65 ×10^4 PMN CE/ml | PMN in lower reservoirs ([3]; 1 nM LXA4, 15 min pre-exposure 37°C): 19.96±4.83 ×10^4 PMN CE/ml | total PMN migration after LXA4 washout ([3]; 10 nM LXA4 15 min, PMN then washed twice in HBSS): 14.5±0.3 ×10^4 PMN CE/ml | total PMN migration (total MPO activity) ([3]; 10 nM LXA4 15 min, harvested 45 min after addition of PMN): 1.51±0.12 ×10^4 PMN CE/ml | fold increase in the total number of transmigrating PMN ([3]; 10 nM LXA4 15 min vs vehicle control): ~2 fold | total PMN migration ([3]; 10 nM LXA4, 0 min pre-exposure): 16.61±3.56 ×10^4 total PMN CE/ml | total PMN migration relative to vehicle control ([3]; 10 nM LXA4, 45 and 60 minutes pre-exposure): returned to vehicle control values | increase in total PMN migration compared to vehicle controls ([3]; 10 nM LXA4, 5 min pre-exposure): 50% | reservoir-associated PMN ([3]; 10 nM LXA4, 5 min pre-exposure): 18.02±3.35 ×10^4 PMN CE/ml | increase in total PMN migration compared to vehicle controls ([3]; 10 nM LXA4, 15 min pre-exposure): 80% and 68% | increase in total PMN migration compared to vehicle controls [3, 4]: 51% | reservoir-associated PMN [3, 4]: 19.64±3.54 ×10^4 PMN CE/ml | monolayer-associated PMN [3, 5]: 6.93±1.77 ×10^4 PMN CE/monolayer and 7.55±0.71 ×10^4 PMN CE/monolayer | reservoir-associated PMN (completely traversed the monolayer) [3, 5]: 11.02±2.91 ×10^4 PMN CE/ml and 19.96±3.18 ×10^4 PMN CE/ml and 20.38±4.83 ×10^4 PMN CE/ml | total number of transmigrating PMN ([3]; PMN pre-exposed 10 nM LXA4 15 min, LXA4 present, 1 μM fMLP, 120 min): 18.6±1.0 ×10^4 PMN CE/ml and 17.95±2.15 ×10^4 PMN CE/ml
